US20230159910A1, “DIMETHYLMONOTHIOARSINIC ACID-INDUCED MALIGNANTLY TRANSFORMED CELL LINE OF HUMAN KERATINOCYTES AND USE THEREOF” (SOOCHOW UNIVERSITY, priority 2021, published 2023)

Key:
Type in all cases: cell-based, human
HaCaT cells [1] = assay: Cell anchoring independent growth by soft agar colony forming test; details: persistent exposure to 1.0 μM, 35th passage, FIG. 5
Method: (§1) Two dishes of normal HaCaT cells (cell passage 0) were prepared. One dish of cells was persistently and chronically exposed to and incubated with Dulbecco's modified Eagle's medium (DMEM) with high glucose with 1.0 μM DMMTAv (containing 100 μg/ml streptomycin, 100 U/ml penicillin and 10% fetal bovine serum), and the medium was refreshed every 24 h. When the cells were grown to a confluency reaching 80%, the cells were sub-cultured and expanded up to the 35th passage. The other dish of cells was persistently and chronically exposed to and normally incubated with Dulbecco's modified Eagle's medium (DMEM) with high glucose (containing 100 μg/ml streptomycin, 100 U/ml penicillin and 10% fetal bovine serum), and the medium was refreshed every 24 h. When the cells were grown to a confluency reaching 80%, the cells were normally sub-cultured and expanded up to the 35th passage and used as the passage control group. One monitoring point is set every 7 passages to detect the cell doubling time of the 0th, 1st, 7th, 14th, 21st, 28th, 35th passages in the exposure group and the passage control group.
(§2) By detecting the changes in the matrix metalloproteinase-9 (MMP-9), the cell doubling time, the cell migration ability and cell anchoring independent growth, whether the cell undergoes malignant transformation is determined. […]

HaCaT cells [2] = assay: Cell doubling time after persistent exposure of sub-cultured HaCaT cells; details: persistent exposure to 1.0 μM; 28th, 35th passage; vs passage control, P<0.05; FIG. 3
Method: as §1, §2

HaCaT cells [3] = assay: Cell migration ability by scratch test; details: persistent exposure to 1.0 μM, 35th passage, vs passage control, P<0.05, FIG. 4
Method: as §1, §2

HaCaT cells [4] = assay: Malignant transformation of HaCaT cells by long-term exposure; details: long-term exposure to 1.0 μM, subculture to 35th passage
Method: as §1, §2

HaCaT cells [5] = assay: MMP-9 secretion after persistent exposure of sub-cultured HaCaT cells; details: persistent exposure to 1.0 μM; 21st, 28th and 35th passages; P<0.05; FIG. 2
Method: as §1, §2

HaCaT cells [6] = assay: Cell survival of HaCaT cells by CCK-8 kit (determination of exposure dose); details: HaCaT cells treated 24 h with 0-2 μM, FIG. 1
Method: Determination of appropriate exposure dose: After the HaCaT cells were treated with various concentrations (0-2 μM) of DMMTA^v for 24 h, and the cell survival was detected by the CCK-8 kit. The chronic exposure dose of DMMTA^v is determined to be 1.0 μM.

C[As](C)(O)=S [DMMTA^v, dimethylmonothioarsinic acid]
colony formation in soft agar (HaCaT cells [1]): can form obvious colonies in soft agar
colony formation rate compared with the passage control group cells (HaCaT cells [1]; soft agar, P<0.05): significantly higher
cell doubling time (HaCaT cells [2]): significantly reduced
cell migration ability (HaCaT cells [3]): significantly enhanced
induction of malignant transformation of HaCaT cells (HaCaT cells [4]): can induce HaCaT cells to undergo malignant transformation
secretion of MMP-9 compared with the passage control group (HaCaT cells [5]): significantly increased
dose with the highest cell survival rate (chronic exposure dose) (HaCaT cells [6]): 1.0 µM
